From patent US8952157B2, “Apoptosis-inducing agents for the treatment of cancer and immune and autoimmune diseases” (AbbVie Inc., priority 2008, dated 2015)
Like-named read-outs stand apart in the source and are kept apart here.

Target: GST-Bcl-2 (Homo sapiens (Human), UniProt P10415)
Test: Time Resolved-Fluorescence Resonance Energy Transfer (TR-FRET) Bcl-2 binding assay
Outline: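 Ki values derived from TR-FRET displacement of F-Bak peptide from GST-Bcl-2, detected with Tb-labelled anti-GST antibody (ex 340, em 520/495 nm). Compound dilution series started at 50 μM (2× starting concentration); room-temperature incubation 3 hours.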

[1] = GST-Bcl-2 1 nM, F-Bak peptide probe 100 nM, Tb-anti-GST antibody 1 nM, Ki by Wang's equation

Sequence of GST-Bcl-2 (P10415 whole entry): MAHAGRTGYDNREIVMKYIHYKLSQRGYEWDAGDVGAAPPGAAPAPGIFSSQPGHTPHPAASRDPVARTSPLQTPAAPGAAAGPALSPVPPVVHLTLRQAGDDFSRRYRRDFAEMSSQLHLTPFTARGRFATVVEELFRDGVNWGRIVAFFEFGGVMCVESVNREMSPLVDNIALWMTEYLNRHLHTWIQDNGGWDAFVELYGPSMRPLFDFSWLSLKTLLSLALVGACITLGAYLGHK

`CC1(C)CCC(CN2CCN(c3ccc(C(=O)NS(=O)(=O)c4ccc(N[C@H]5CC[C@H](N6CCOCC6)CC5)c([N+](=O)[O-])c4)c(Oc4cc5cc[nH]c5cc4F)c3)CC2)=C(c2ccc(Cl)cc2)C1` [Example 234, Trans-4-(4-{[2-(4-chlorophenyl)-4,4-dimethylcyclohex-1-en-1-yl]methyl}piperazin-1-yl)-2-[(6-fluoro-1H-indol-5-yl)oxy]-N-({4-[(4-morpholin-4-ylcyclohexyl)amino]-3-nitrophenyl}sulfonyl)benzamide] was tested. Which Ki did it give?
The Ki was 0.099 nM.

Which Ki does the source give for `CC1(C)CCC(CN2CCN(c3ccc(C(=O)NS(=O)(=O)c4ccc(N[C@H]5CC[C@H](N6CCOCC6)CC5)c([N+](=O)[O-])c4)c(Oc4cc5cc[nH]c5c(F)c4F)c3)CC2)=C(c2ccc(Cl)cc2)C1` [Example 235, Trans-4-(4-{[2-(4-chlorophenyl)-4,4-dimethylcyclohex-1-en-1-yl]methyl}piperazin-1-yl)-2-[(6,7-difluoro-1H-indol-5-yl)oxy]-N-({4-[(4-morpholin-4-ylcyclohexyl)amino]-3-nitrophenyl}sulfonyl)benzamide] here?
Its Ki is 0.039 nM.

With `CC1(C)CCC(CN2CCN(c3ccc(C(=O)NS(=O)(=O)c4ccc(NC5CCN(CC6CC6)CC5)c([N+](=O)[O-])c4)c(Oc4cc5cc[nH]c5cc4F)c3)CC2)=C(c2ccc(Cl)cc2)C1` [Example 236, 4-(4-{[2-(4-chlorophenyl)-4,4-dimethylcyclohex-1-en-1-yl]methyl}piperazin-1-yl)-N-[(4-{[1-(cyclopropylmethyl)piperidin-4-yl]amino}-3-nitrophenyl)sulfonyl]-2-[(6-fluoro-1H-indol-5-yl)oxy]benzamide] as the molecule, how does the Ki [1] read?
The Ki was 0.071 nM.

Which Ki [1] does the source give for `CC1(C)CCC(CN2CCN(c3ccc(C(=O)NS(=O)(=O)c4ccc(NCC5CCOCC5)c([N+](=O)[O-])c4)c(Oc4cc5cc[nH]c5cc4F)c3)CC2)=C(c2ccc(Cl)cc2)C1` [Example 238, 4-(4-{[2-(4-chlorophenyl)-4,4-dimethylcyclohex-1-en-1-yl]methyl}piperazin-1-yl)-2-[(6-fluoro-1H-indol-5-yl)oxy]-N-({3-nitro-4-[(tetrahydro-2H-pyran-4-ylmethyl)amino]phenyl}sulfonyl)benzamide] here?
The Ki was 0.124 nM.

For `CC1(C)CCC(CN2CCN(c3ccc(C(=O)NS(=O)(=O)c4ccc(NC(CO)C5CCOCC5)c([N+](=O)[O-])c4)c(Oc4cc5cc[nH]c5cc4F)c3)CC2)=C(c2ccc(Cl)cc2)C1` (stereo not shown) [Example 240, 4-(4-{[2-(4-chlorophenyl)-4,4-dimethylcyclohex-1-en-1-yl]methyl}piperazin-1-yl)-2-[(6-fluoro-1H-indol-5-yl)oxy]-N-({4-[(2-hydroxy-1-tetrahydro-2H-pyran-4-ylethyl)amino]-3-nitrophenyl}sulfonyl)benzamide], which Ki [1] is on record?
The Ki was 0.912 nM.

`CC1(C)CCC(CN2CCN(c3ccc(C(=O)NS(=O)(=O)c4ccc(NC5CCN(C6CCOCC6)CC5)c([N+](=O)[O-])c4)c(Oc4cc5cc[nH]c5cc4Cl)c3)CC2)=C(c2ccc(Cl)cc2)C1` [Example 242, 2-[(6-chloro-1H-indol-5-yl)oxy]-4-(4-{[2-(4-chlorophenyl)-4,4-dimethylcyclohex-1-en-1-yl]methyl}piperazin-1-yl)-N-({3-nitro-4-[(1-tetrahydro-2H-pyran-4-ylpiperidin-4-yl)amino]phenyl}sulfonyl)benzamide] was tested. Which Ki [1] did it give?
The Ki was 0.092 nM.

How did the Ki [1] turn out when `CC1(C)CCC(CN2CCN(c3ccc(C(=O)NS(=O)(=O)c4ccc(NCC5CCOCC5)c([N+](=O)[O-])c4)c(Oc4cc5cc[nH]c5c(F)c4F)c3)CC2)=C(c2ccc(Cl)cc2)C1` [Example 243, 4-(4-{[2-(4-chlorophenyl)-4,4-dimethylcyclohex-1-en-1-yl]methyl}piperazin-1-yl)-2-[(6,7-difluoro-1H-indol-5-yl)oxy]-N-({3-nitro-4-[(tetrahydro-2H-pyran-4-ylmethyl)amino]phenyl}sulfonyl)benzamide] was run?
The Ki was 0.069 nM.

With `CN1CCN(Nc2ccc(S(=O)(=O)NC(=O)c3ccc(N4CCN(CC5=C(c6ccc(Cl)cc6)CC(C)(C)CC5)CC4)cc3Oc3cc4cc[nH]c4cc3Cl)cc2[N+](=O)[O-])CC1` [Example 244, 2-[(6-chloro-1H-indol-5-yl)oxy]-4-(4-{[2-(4-chlorophenyl)-4,4-dimethylcyclohex-1-en-1-yl]methyl}piperazin-1-yl)-N-({4-[(4-methylpiperazin-1-yl)amino]-3-nitrophenyl}sulfonyl)benzamide] as the molecule, how does the Ki [1] read?
The Ki was 1.73 nM.

`CC1(C)CCC(CN2CCN(c3ccc(C(=O)NS(=O)(=O)c4ccc(NC5CCN(Cc6cscn6)CC5)c([N+](=O)[O-])c4)c(Oc4cc5cc[nH]c5cc4F)c3)CC2)=C(c2ccc(Cl)cc2)C1` [Example 245, 4-(4-{[2-(4-chlorophenyl)-4,4-dimethylcyclohex-1-en-1-yl]methyl}piperazin-1-yl)-2-[(6-fluoro-1H-indol-5-yl)oxy]-N-[(3-nitro-4-{[1-(1,3-thiazol-4-ylmethyl)piperidin-4-yl]amino}phenyl)sulfonyl]benzamide] was tested. Which Ki [1] did it give?
Its Ki is 0.48 nM.

How did the Ki [1] turn out when `CC1(C)CCC(CN2CCN(c3ccc(C(=O)NS(=O)(=O)c4ccc(NCC5CCOCC5)c([N+](=O)[O-])c4)c(Oc4cccc(Cl)c4)c3)CC2)=C(c2ccc(Cl)cc2)C1` [Example 246, 2-(3-chlorophenoxy)-4-(4-{[2-(4-chlorophenyl)-4,4-dimethylcyclohex-1-en-1-yl]methyl}piperazin-1-yl)-N-({3-nitro-4-[(tetrahydro-2H-pyran-4-ylmethyl)amino]phenyl}sulfonyl)benzamide] was run?
Its Ki is 0.065 nM.

`CC1(C)CCC(CN2CCN(c3ccc(C(=O)NS(=O)(=O)c4ccc(NCC5CCOCC5)c([N+](=O)[O-])c4)c(Oc4ccc(N)c(Cl)c4)c3)CC2)=C(c2ccc(Cl)cc2)C1` [Example 247, 2-(4-amino-3-chlorophenoxy)-4-(4-{[2-(4-chlorophenyl)-4,4-dimethylcyclohex-1-en-1-yl]methyl}piperazin-1-yl)-N-({3-nitro-4-[(tetrahydro-2H-pyran-4-ylmethyl)amino]phenyl}sulfonyl)benzamide] was tested. Which Ki [1] did it give?
Its Ki is 0.039 nM.

`CC1(C)CCC(CN2CCN(c3ccc(C(=O)NS(=O)(=O)c4ccc(NCC5(N)CCOCC5)c([N+](=O)[O-])c4)c(Oc4cc5cc[nH]c5cc4F)c3)CC2)=C(c2ccc(Cl)cc2)C1` [Example 248, N-[(4-{[(4-aminotetrahydro-2H-pyran-4-yl)methyl]amino}-3-nitrophenyl)sulfonyl]-4-(4-{[2-(4-chlorophenyl)-4,4-dimethylcyclohex-1-en-1-yl]methyl}piperazin-1-yl)-2-[(6-fluoro-1H-indol-5-yl)oxy]benzamide] was tested. Which Ki [1] did it give?
The Ki was 0.051 nM.

`CC1(C)CCC(CN2CCN(c3ccc(C(=O)NS(=O)(=O)c4ccc(N[C@@H]5CCN(Cc6cscn6)C[C@@H]5O)c([N+](=O)[O-])c4)c(Oc4cc5cc[nH]c5cc4F)c3)CC2)=C(c2ccc(Cl)cc2)C1` [Example 249, 4-(4-{[2-(4-chlorophenyl)-4,4-dimethylcyclohex-1-en-1-yl]methyl}piperazin-1-yl)-2-[(6-fluoro-1H-indol-5-yl)oxy]-N-[(4-{[(3S,4R)-3-hydroxy-1-(1,3-thiazol-4-ylmethyl)piperidin-4-yl]amino}-3-nitrophenyl)sulfonyl]benzamide] was tested. Which Ki [1] did it give?
The Ki was 0.168 nM.

With `CC1(C)CCC(CN2CCN(c3ccc(C(=O)NS(=O)(=O)c4ccc(NC5CCOCC5)c([N+](=O)[O-])c4)c(Oc4cc5cc[nH]c5cc4F)c3)CC2)=C(c2ccc(Cl)cc2)C1` [Example 251, 4-(4-{[2-(4-chlorophenyl)-4,4-dimethylcyclohex-1-en-1-yl]methyl}piperazin-1-yl)-2-[(6-fluoro-1H-indol-5-yl)oxy]-N-{[3-nitro-4-(tetrahydro-2H-pyran-4-ylamino)phenyl]sulfonyl}benzamide] as the molecule, how does the Ki [1] read?
Its Ki is 0.435 nM.

Which Ki [1] does the source give for `CC1(C)CCC(CN2CCN(c3ccc(C(=O)NS(=O)(=O)c4ccc(NN5CCOCC5)c([N+](=O)[O-])c4)c(Oc4cc5cc[nH]c5cc4F)c3)CC2)=C(c2ccc(Cl)cc2)C1` [Example 252, 4-(4-{[2-(4-chlorophenyl)-4,4-dimethylcyclohex-1-en-1-yl]methyl}piperazin-1-yl)-2-[(6-fluoro-1H-indol-5-yl)oxy]-N-{[4-(morpholin-4-ylamino)-3-nitrophenyl]sulfonyl}benzamide] here?
Its Ki is 1.15 nM.

Which Ki [1] does the source give for `CC1(C)CCC(CN2CCN(c3ccc(C(=O)NS(=O)(=O)c4ccc(NN5CCOCC5)c([N+](=O)[O-])c4)c(Oc4cccc(Cl)c4)c3)CC2)=C(c2ccc(Cl)cc2)C1` [Example 253, 2-(3-chlorophenoxy)-4-(4-{[2-(4-chlorophenyl)-4,4-dimethylcyclohex-1-en-1-yl]methyl}piperazin-1-yl)-N-{[4-(morpholin-4-ylamino)-3-nitrophenyl]sulfonyl}benzamide] here?
Its Ki is 0.05 nM.

Which Ki [1] does the source give for `CC1(C)CCC(CN2CCN(c3ccc(C(=O)NS(=O)(=O)c4ccc(NCCCN5CCNC(=O)C5)c([N+](=O)[O-])c4)c(Oc4ccccc4Cl)c3)CC2)=C(c2ccc(Cl)cc2)C1` [Example 254, 2-(2-chlorophenoxy)-4-(4-{[2-(4-chlorophenyl)-4,4-dimethylcyclohex-1-en-1-yl]methyl}piperazin-1-yl)-N-[(3-nitro-4-{[3-(3-oxopiperazin-1-yl)propyl]amino}phenyl)sulfonyl]benzamide] here?
The Ki was 0.119 nM.

Which Ki [1] does the source give for `CC1(C)CCC(CN2CCN(c3ccc(C(=O)NS(=O)(=O)c4ccc(NC5CCN(C6CCOCC6)CC5)c([N+](=O)[O-])c4)c(-c4ccc(N)nc4)c3)CC2)=C(c2ccc(Cl)cc2)C1` [Example 255, 2-(6-aminopyridin-3-yl)-4-(4-{[2-(4-chlorophenyl)-4,4-dimethylcyclohex-1-en-1-yl]methyl}piperazin-1-yl)-N-({3-nitro-4-[(1-tetrahydro-2H-pyran-4-ylpiperidin-4-yl)amino]phenyl}sulfonyl)benzamide] here?
The Ki was 7.01 nM.

With `CC1(C)CCC(CN2CCN(c3ccc(C(=O)NS(=O)(=O)c4ccc(NCCCN5CCNC(=O)C5)c([N+](=O)[O-])c4)c(Oc4cc(F)cc5[nH]ccc45)c3)CC2)=C(c2ccc(Cl)cc2)C1` [Example 257, 4-(4-{[2-(4-chlorophenyl)-4,4-dimethylcyclohex-1-en-1-yl]methyl}piperazin-1-yl)-2-[(6-fluoro-1H-indol-4-yl)oxy]-N-[(3-nitro-4-{[3-(3-oxopiperazin-1-yl)propyl]amino}phenyl)sulfonyl]benzamide] as the molecule, how does the Ki [1] read?
The Ki was 0.097 nM.
